According to paper PMC4809600, “The Influence of Chronic Wound Extracts on Inflammatory Cytokine and Histatin Stability” (PLoS ONE, 2016):
Where no end group is shown, it is not given here.

Key:
[1] = Stability in chronic wound extracts (CWE), capillary zone electrophoresis; type: in vitro ADME, human; details: 37°C, CZE; for Percentage intact, CWE 2h / Percentage intact, CWE 4h / Percentage intact, CWE 8h / Percentage intact, CWE 16h / Percentage intact, CWE 24h / Percentage intact, CWE 48h / Percentage intact, CWE 72h / Percentage intact, CWE 96h: 1 mg/ml in PBS mixed 1:1 with CWE (1 mg/ml protein, pool of 5 donors) in PBS, UV 200 nm, ratio to imidazole
Procedure, shortened: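 Peptides or cytokines (1 mg/ml stock) mixed 1:1 with PBS or pooled chronic-wound extract (1 mg/ml protein, three pools of five donors), ±protease inhibitor cocktail, at 37 °C for up to 96 h. Analyzed by capillary zone electrophoresis (pH 2.5 phosphate, 200 nm), with peak ratio to imidazole standard relative to 0 h as % intact.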

[2] = Stability in CWE with protease inhibitor cocktail (PIC), capillary zone electrophoresis; type: in vitro ADME, human; details: 37°C, CZE, 0 h = 100%; for Percentage intact, CWE + PIC 2h / Percentage intact, CWE + PIC 4h / Percentage intact, CWE + PIC 8h / Percentage intact, CWE + PIC 16h / Percentage intact, CWE + PIC 24h / Percentage intact, CWE + PIC 48h / Percentage intact, CWE + PIC 72h / Percentage intact, CWE + PIC 96h: 1 mg/ml in PBS mixed 1:1 with CWE (1 mg/ml protein, pool of 5 donors) in PBS containing PIC (final 1:140 v/v), ratio to imidazole
From the text: Debridement tissue was obtained from chronic ulcers of 15 patients with therapy resistant (arterio-venous) leg ulcers, according to procedures described earlier. In brief, moist, easily removable debridement material, essentially blood free, was collected from the ulcer surface and divided equally into two different solutions: (i) PBS (B. Braun, Melsungen, Germany), (ii) PBS with protease inhibitor cocktail (PIC) (1:100; v/v) (Sigma-Aldrich, Steinheim, Germany). The mixtures were gently shaken for 1 h at 4°C to elute proteins and centrifuged; the supernatants were stored at -80°C. Total protein content of the supernatant was measured using the BioRad Protein Assay (BioRad Laboratories, Hercules, California, USA) essentially as described by the supplier. Samples were diluted to 1 mg/ml protein and extracts of five different donors were pooled; three different pools of five donors were used in all experiments. The samples are referred to as chronic wound extracts (CWE).
To determine the stability of the different peptides in CWE, histatins and cytokines were dissolved in PBS at 1 mg/ml. Histatins and cytokines were incubated in a 1:1 ratio with (i) PBS, (ii) CWE in PBS, or (iii) CWE in PBS containing PIC, in a total volume of 25 μl. Imidazole (Sigma-Aldrich) was added as an internal standard, with a final concentration of 100 μg/ml. The mixtures were incubated at 37°C, and samples were taken at 0, 24, 48, 72 and 96 h. For histatins containing mixtures, additional samples were taken after 2, 4, 8 and 16 h of incubation.
The samples were analyzed with a BioFocus 2000 capillary zone electrophoresis system (Bio-Rad Laboratories, Hercules, CA, USA) equipped with an uncoated fused-silica capillary of internal diameter 50 μm and a length of 24 cm. Samples were loaded by pressure injection (5 psi/sec). Separation was performed at 10 kV (cathode at the detector side) at 20°C using 0.1 M phosphate buffer (pH 2.5) as electrolyte and monitored continuously at 200 nm. Peaks were quantified with the BioFocus Integrator software. In order to quantify the percentage of intact peptides remaining after incubation with CWE, the ratios of histatins, rhIL-6 or rhCXCL8 to internal standard was set at 100% at 0h, and the ratios at the other incubation time points were related to this.

Percentage intact, CWE 2h ([1]; 0 h = 100%, experiment 1 of 3): 83.2738% | Percentage intact, CWE 2h ([1]; 0 h = 100%, experiment 2 of 3): 87.1828% | Percentage intact, CWE 2h ([1]; 0 h = 100%, experiment 3 of 3): 86.6201% | Percentage intact, CWE 4h ([1]; 0 h = 100%, experiment 1 of 3): 58.4193% | Percentage intact, CWE 4h ([1]; 0 h = 100%, experiment 2 of 3): 76.5418% | Percentage intact, CWE 4h ([1]; 0 h = 100%, experiment 3 of 3): 73.9107% | Percentage intact, CWE 8h ([1]; 8 h, 0 h = 100%, experiment 1 of 3): 32.9227% | Percentage intact, CWE 8h ([1]; 8 h, 0 h = 100%, experiment 2 of 3): 52.8031% | Percentage intact, CWE 8h ([1]; 8 h, 0 h = 100%, experiment 3 of 3): 51.366% | Percentage intact, CWE 16h ([1]; 0 h = 100%, experiment 1 of 3): 8.0136% | Percentage intact, CWE 16h ([1]; 0 h = 100%, experiment 2 of 3): 20.767% | Percentage intact, CWE 16h ([1]; 0 h = 100%, experiment 3 of 3): 27.1396% | Percentage intact, CWE 24h ([1]; 24 h, 0 h = 100%, experiment 1 of 3): 1.592% | Percentage intact, CWE 24h ([1]; 24 h, 0 h = 100%, experiment 2 of 3): 7.881% | Percentage intact, CWE 24h ([1]; 24 h, 0 h = 100%, experiment 3 of 3): 13.5375% | Percentage intact, CWE 48h ([1]; 0 h = 100%, experiment 1 of 3): 0.0001% | Percentage intact, CWE 48h ([1]; 0 h = 100%, experiment 2 of 3): 0.0001% | Percentage intact, CWE 48h ([1]; 0 h = 100%, experiment 3 of 3): 0.0001% | Percentage intact, CWE 72h ([1]; 0 h = 100%, experiment 1 of 3): 0.0001% | Percentage intact, CWE 72h ([1]; 0 h = 100%, experiment 2 of 3): 0.0001% | Percentage intact, CWE 72h ([1]; 0 h = 100%, experiment 3 of 3): 0.0001% | Percentage intact, CWE 96h ([1]; 0 h = 100%, experiment 1 of 3): 0.0001% | Percentage intact, CWE 96h ([1]; 0 h = 100%, experiment 2 of 3): 0.0001% | Percentage intact, CWE 96h ([1]; 0 h = 100%, experiment 3 of 3): 0.0001% | remaining at 8 h, 0.5 mg/ml ([1]; human, chronic wound extracts (CWE), 1 mg/ml in PBS mixed 1:1 with CWE (1 mg/ml protein, pools of 5 donors), 8 h, 0 h = 100%, mean of 3 independent experiments, read-out: Original amount of peptide remaining intact after 8 h in CWE): 46% | remaining at 24 h, 0.5 mg/ml ([1]; human, chronic wound extracts (CWE), 1 mg/ml in PBS mixed 1:1 with CWE (1 mg/ml protein, pools of 5 donors), 24 h, 0 h = 100%, mean of 3 independent experiments, read-out: Original amount of peptide remaining intact after 24 h in CWE): 8% | metabolised at 8 h, 0.5 mg/ml ([1]; human, chronic wound extracts (CWE), incubation with chronic wound extracts, 8 h, read-out: Breakdown (degradation) in CWE in 8 h): ~50% | Percentage intact, CWE + PIC 2h ([2]; experiment 1 of 3): 91.8564% | Percentage intact, CWE + PIC 2h ([2]; experiment 2 of 3): 90.6434% | Percentage intact, CWE + PIC 2h ([2]; experiment 3 of 3): 99.1023% | Percentage intact, CWE + PIC 4h ([2]; experiment 1 of 3): 81.1086% | Percentage intact, CWE + PIC 4h ([2]; experiment 2 of 3): 81.649% | Percentage intact, CWE + PIC 4h ([2]; experiment 3 of 3): 84.0062% | Percentage intact, CWE + PIC 8h ([2]; experiment 1 of 3): 76.5843% | Percentage intact, CWE + PIC 8h ([2]; experiment 2 of 3): 75.4466% | Percentage intact, CWE + PIC 8h ([2]; experiment 3 of 3): 82.0587% | Percentage intact, CWE + PIC 16h ([2]; experiment 1 of 3): 72.2461% | Percentage intact, CWE + PIC 16h ([2]; experiment 2 of 3): 65.5164% | Percentage intact, CWE + PIC 16h ([2]; experiment 3 of 3): 70.9806% | Percentage intact, CWE + PIC 24h ([2]; 24 h, experiment 1 of 3): 78.4236% | Percentage intact, CWE + PIC 24h ([2]; 24 h, experiment 2 of 3): 69.711% | Percentage intact, CWE + PIC 24h ([2]; 24 h, experiment 3 of 3): 68.9989% | Percentage intact, CWE + PIC 48h ([2]; experiment 1 of 3): 73.7424% | Percentage intact, CWE + PIC 48h ([2]; experiment 2 of 3): 59.1893% | Percentage intact, CWE + PIC 48h ([2]; experiment 3 of 3): 54.0682% | Percentage intact, CWE + PIC 72h ([2]; experiment 1 of 3): 64.2173% | Percentage intact, CWE + PIC 72h ([2]; experiment 2 of 3): 41.8342% | Percentage intact, CWE + PIC 72h ([2]; experiment 3 of 3): 36.0529% | Percentage intact, CWE + PIC 96h ([2]; experiment 1 of 3): 48.0273% | Percentage intact, CWE + PIC 96h ([2]; experiment 2 of 3): 30% | Percentage intact, CWE + PIC 96h ([2]; experiment 3 of 3): 21.2156% | remaining at 24 h, 0.5 mg/ml ([2]; human, with protease inhibitor cocktail (PIC), CWE with protease inhibitor cocktail (final 1:140 v/v), 24 h, mean of 3 independent experiments, read-out: Remaining fraction of intact peptide after 24 h in CWE + PIC): 72%
Sequence: DSHEKRHHGYRRKFHEKHHSHREFPFYGDYGSNYLYDN [Hst1]
